{"source": "paper PMC6150173", "about": "“Tryptophan-Containing Cyclic Decapeptides with Activity against Plant Pathogenic Bacteria” (Molecules : A Journal of Synthetic Chemistry and Natural …, 2017)", "type_in_all_cases": "cell-based", "key": {"[1]": {"system": "Pseudomonas syringae pv. syringae EPS94", "assay": "Antibacterial activity (MIC), in vitro growth inhibition", "settings": "Table S1, MIC range", "description": "(§1) Erwinia amylovora PMV6076 (Institut National de la Recherche Agronomique, Angers, France), Pseudomonas syringae pv. syringae EPS94 (Institut de Tecnologia Agroalimentària, Universitat de Girona, Spain), and Xanthomonas axonopodis pv. vesicatoria 2133-2 (Instituto Valenciano de Investigaciones Agrarias, Valencia, Spain) were used as bacterial strains. They were stored and cultivated as previously described.\n(§2) The minimum inhibitory concentration (MIC) was analyzed as previously described at 0.8, 1.6, 3.1, 6.2, 12.5, 25 and 50 μM [20]."}, "[2]": {"system": "erythrocyte suspensions of human blood", "assay": "Hemolytic activity, hemoglobin release", "settings": "human blood erythrocytes 5% v/v, absorbance 540 nm, percentage compared to melittin, three replicates; for Hemolysis (%) at 50 µM: peptide 50 μM (table prints 50 µM); for Hemolysis (%) at 125 µM: peptide 125 μM (table prints 125 µM)", "description": "The hemolytic activity of the compounds was evaluated at 50 and 125 μM by determining hemoglobin release from erythrocyte suspensions of human blood (5% v/v) (Oxoid) using absorbance at 540 nm, as previously described. Three replicates for each peptide concentration were used."}, "[3]": {"system": "Xanthomonas axonopodis pv. vesicatoria 2133-2", "settings": "Table S1, MIC range", "description": "as §1, §2"}}, "note": "Peptide text beside a SMILES is read from it."}
{"smiles": "CC(C)C[C@@H]1NC(=O)[C@H](CCCCN)NC(=O)[C@H](Cc2c[nH]c3ccccc23)NC(=O)[C@H](CCCCN)NC(=O)[C@H](CC(C)C)NC(=O)[C@H](CCCCN)NC(=O)[C@H](CC(C)C)NC(=O)[C@H](CCCCN)NC(=O)[C@H](CCC(N)=O)NC(=O)[C@H](CCCCN)NC1=O", "note": "[BPC016W, c(KLKLKWKLKQ)] (cyclo(KLKLKWKLKQ))", "values": [{"measurement": "MIC Pss", "setting": "[1]", "value": "12.5 to 25", "unit": "µM"}, {"measurement": "Hemolysis (%) at 50 µM", "setting": "[2]", "value": 25, "unit": "%"}, {"measurement": "Hemolysis (%) at 125 µM", "setting": "[2]", "value": 32, "unit": "%"}, {"measurement": "MIC Xav", "setting": "[3]", "value": "3.1 to 6.2", "unit": "µM"}]}
{"smiles": "CC(C)C[C@@H]1NC(=O)[C@H](Cc2c[nH]c3ccccc23)NC(=O)[C@H](CCCCN)NC(=O)[C@H](CCCCN)NC(=O)[C@H](CCCCN)NC(=O)[C@H](CCCCN)NC(=O)[C@H](CCCCN)NC(=O)[C@H](CCC(N)=O)NC(=O)[C@H](CC(C)C)NC(=O)[C@H](CC(C)C)NC1=O", "note": "[BPC058W, c(KKKKKWLLLQ)] (cyclo(KKKKKWLLLQ))", "values": [{"measurement": "MIC Pss", "setting": "[1]", "value": "12.5 to 25", "unit": "µM"}, {"measurement": "Hemolysis (%) at 50 µM", "setting": "[2]", "value": 2, "unit": "%"}, {"measurement": "Hemolysis (%) at 125 µM", "setting": "[2]", "value": 3, "unit": "%"}, {"measurement": "MIC Xav", "setting": "[3]", "value": "25 to 50", "unit": "µM"}]}
{"smiles": "CC(C)C[C@@H]1NC(=O)[C@H](CCC(N)=O)NC(=O)[C@H](CC(C)C)NC(=O)[C@H](CCCCN)NC(=O)[C@H](CCCCN)NC(=O)[C@H](Cc2c[nH]c3ccccc23)NC(=O)[C@H](CCCCN)NC(=O)[C@H](CC(C)C)NC(=O)[C@H](CCCCN)NC(=O)[C@H](CCCCN)NC1=O", "note": "[BPC092W, c(LKKLKWKKLQ)] (cyclo(KKLKWKKLQL))", "values": [{"measurement": "MIC Pss", "setting": "[1]", "value": "6.2 to 12.5", "unit": "µM"}, {"measurement": "Hemolysis (%) at 50 µM", "setting": "[2]", "value": 2, "unit": "%"}, {"measurement": "Hemolysis (%) at 125 µM", "setting": "[2]", "value": 3, "unit": "%"}, {"measurement": "MIC Xav", "setting": "[3]", "value": "3.1 to 6.2", "unit": "µM"}]}
{"smiles": "CC(C)C[C@@H]1NC(=O)[C@H](CCCCN)NC(=O)[C@H](CCCCN)NC(=O)[C@H](CCCCN)NC(=O)[C@H](CCCCN)NC(=O)[C@H](CCC(N)=O)NC(=O)[C@H](CCCCN)NC(=O)[C@H](CC(C)C)NC(=O)[C@H](CC(C)C)NC(=O)[C@H](Cc2c[nH]c3ccccc23)NC1=O", "note": "[BPC100W, c(KKKKLWLLKQ)] (cyclo(KKKKLWLLKQ))", "values": [{"measurement": "MIC Pss", "setting": "[1]", "value": "12.5 to 25", "unit": "µM"}, {"measurement": "Hemolysis (%) at 50 µM", "setting": "[2]", "value": 19, "unit": "%"}, {"measurement": "Hemolysis (%) at 125 µM", "setting": "[2]", "value": 27, "unit": "%"}, {"measurement": "MIC Xav", "setting": "[3]", "value": "6.2 to 12.5", "unit": "µM"}]}
{"smiles": "CC(C)C[C@@H]1NC(=O)[C@H](CCCCN)NC(=O)[C@H](Cc2c[nH]c3ccccc23)NC(=O)[C@H](CC(C)C)NC(=O)[C@H](CCCCN)NC(=O)[C@H](CC(C)C)NC(=O)[C@H](CCCCN)NC(=O)[C@H](CCCCN)NC(=O)[C@H](CCC(N)=O)NC(=O)[C@H](CCCCN)NC1=O", "note": "[BPC112W, c(KKLKLWKLKQ)] (cyclo(KKLKLWKLKQ))", "values": [{"measurement": "MIC Pss", "setting": "[1]", "value": "3.1 to 6.2", "unit": "µM"}, {"measurement": "Hemolysis (%) at 50 µM", "setting": "[2]", "value": 3, "unit": "%"}, {"measurement": "Hemolysis (%) at 125 µM", "setting": "[2]", "value": 4, "unit": "%"}, {"measurement": "MIC Xav", "setting": "[3]", "value": "6.2 to 12.5", "unit": "µM"}]}
{"smiles": "CC(C)C[C@@H]1NC(=O)[C@H](CCCCN)NC(=O)[C@H](Cc2c[nH]c3ccccc23)NC(=O)[C@H](CCCCN)NC(=O)[C@H](CCCCN)NC(=O)[C@H](CC(C)C)NC(=O)[C@H](CCCCN)NC(=O)[C@H](CC(C)C)NC(=O)[C@H](CCC(N)=O)NC(=O)[C@H](CCCCN)NC1=O", "note": "[BPC124W, c(LKLKKWKLKQ)] (cyclo(KKWKLKQLKL))", "values": [{"measurement": "MIC Pss", "setting": "[1]", "value": "6.2 to 12.5", "unit": "µM"}, {"measurement": "Hemolysis (%) at 50 µM", "setting": "[2]", "value": 2, "unit": "%"}, {"measurement": "Hemolysis (%) at 125 µM", "setting": "[2]", "value": 2, "unit": "%"}, {"measurement": "MIC Xav", "setting": "[3]", "value": "3.1 to 6.2", "unit": "µM"}]}
{"smiles": "CC(C)C[C@@H]1NC(=O)[C@H](CCCCN)NC(=O)[C@H](CCCCN)NC(=O)[C@H](CCC(N)=O)NC(=O)[C@H](CCCCN)NC(=O)[C@H](CCCCN)NC(=O)[C@H](CCCCN)NC(=O)[C@H](Cc2c[nH]c3ccccc23)NC(=O)[C@H](CC(C)C)NC(=O)[C@H](CC(C)C)NC1=O", "note": "[BPC148W, c(KKLLLWKKKQ)] (cyclo(KKKQKKLLLW))", "values": [{"measurement": "MIC Pss", "setting": "[1]", "value": "12.5 to 25", "unit": "µM"}, {"measurement": "Hemolysis (%) at 50 µM", "setting": "[2]", "value": 1, "unit": "%"}, {"measurement": "Hemolysis (%) at 125 µM", "setting": "[2]", "value": 2, "unit": "%"}, {"measurement": "MIC Xav", "setting": "[3]", "value": "12.5 to 25", "unit": "µM"}]}
{"smiles": "CC(C)C[C@@H]1NC(=O)[C@H](CCCCN)NC(=O)[C@H](CCC(N)=O)NC(=O)[C@H](CCCCN)NC(=O)[C@H](CCCCN)NC(=O)[C@H](CCCCN)NC(=O)[C@H](Cc2c[nH]c3ccccc23)NC(=O)[C@H](CC(C)C)NC(=O)[C@H](CC(C)C)NC(=O)[C@H](CCCCN)NC1=O", "note": "[BPC150W, c(KLKLLWKKKQ)] (cyclo(KKKQKLKLLW))", "values": [{"measurement": "MIC Pss", "setting": "[1]", "value": "12.5 to 25", "unit": "µM"}, {"measurement": "Hemolysis (%) at 50 µM", "setting": "[2]", "value": 17, "unit": "%"}, {"measurement": "Hemolysis (%) at 125 µM", "setting": "[2]", "value": 32, "unit": "%"}, {"measurement": "MIC Xav", "setting": "[3]", "value": "6.2 to 12.5", "unit": "µM"}]}
